This note sets out measurements from patent US20140255358A1, “GENERATION OF IMMUNOSUPPRESSIVE MYELOID CELLS USING PGE2” (priority 2011, published 2014).

Holding throughout (assay type): cell-based, human
For assay [1], the system named is myeloid suppressive cells. Nature of the assay: Induction of immunosuppressive factor mRNA by PGE2 and EP agonists (FIG. 3). From the text:
FIG. 3. PGE2, EP4 and EP2 agonists mediate enhanced development of MDSCs. […] All data were confirmed in 3-7 independent experiments. Bar graphs present data of a single representative experiment with different donors as mean±s.d.

In assay [2] the test system is differentiating monocytes. Kind of assay: Six-day GM-CSF and IL-4-supplemented cultures of differentiating monocytes: phenotype, suppressive factors, CD8+ T cell suppression (FIG. 2). From the text: PGE2 acts on four subtypes of G protein-coupled receptors designated EP1, EP2, EP3, and EP4, among which EP2 and EP4 signaling is coupled to rise in cAMP concentration.
FIG. 2. PGE2 redirects DC differentiation and induces CD14^+CD33^+CD34^+ cells with the phenotype and function similar to monocytic MDSCs. (A) Phenotype of PGE2-induced CD1a^−CD14^+CD80^−CD83^− suppressive cells expressing inhibitory molecules ILT2, ILT3, ILT4, PDL-1, but not PDL-2. PGE2-induced suppressive cells express E-prostanoid receptors (labeled with α-EP1-, α-EP3- sec.Alexa488 and α-EP2-, α-EP4-PE). […] (bottom) Expression of immunosuppressive factors IL10, IDO1, IL4Rα and COX2 in PGE2-induced suppressive cells. (C) Immunosuppressive effects of PGE2-induced suppressive cells on allogeneic naïve CFSE-labeled CD8^+ T cells primed by CD3/CD28 and stained for granzyme B. Left panel: Percentages indicate the fraction of proliferating granzyme B^+ (marker of CTL status) CD8^+ cells. Right panel: Percentage of proliferating CD8^+ T cells in the presence of PGE2-induced suppressive cells (PGE2-d0) and PGE2-conditioned DCs (PGE2-d6). All data (panels A-C) were confirmed in at least 3 independent experiments. Bar graphs present data of a single representative experiment with different donors as mean±s.d. P<0.05 marked *; P<0.01 marked **; P<0.001 marked ***.

In assay [3] the test system is monocytes isolated from healthy blood donors. Nature of the assay: Induction of COX2 and suppressive factors in short-term cultured monocytes (FIG. 1). On the procedure:
FIG. 1. The induction of endogenous COX2 and MDSC-associated suppressive factors in monocytes by PGE2. (A) Expression of COX2 mRNA (A, left) and protein (A, right) levels in monocytes isolated from healthy blood donors is induced by synthetic PGE2. Regulation of COX1 and COX2 expression by synthetic PGE2 was analyzed after 6-10 h. […] All data (panels A-B) were confirmed in at least 3 independent experiments. Bar graphs present data of a single representative experiment with different donors as mean±s.d. P<0.05 marked *; P<0.01 marked **; P<0.001 marked ***.

The next assay deals with suppressive cells. Nature of the assay: Yield of ex vivo generated cells (FIG. 5). The note with it: N=12 donors, mean. From the text:
Yield of PGE2-induced myeloid suppressive cells was similar as the yield of iDCs and TNF-a matured DCs (FIG. 5). FIG. 5. PGE2 allows for ex vivo generation of high numbers of suppressive cells. […] Histograms present data of individual experiments (N=12) with different donors as mean±s.d.

For assay [4], the system named is PGE2-induced myeloid suppressive cells. Nature of the assay: Dose-dependent induction of immunosuppressive factors with or without IL-4 (FIG. 4). The settings on record: presence or absence of IL-4. From the text: FIG. 4 Minimal requirement for high doses of PGE2 in the functional induction of myeloid suppressive cells, regardless of the presence or absence of IL-4. (A) Dose-dependent expression of immunosuppressive factors IL10, IDO1, IL4Rα and COX2 in PGE2-induced suppressive cells, generated in the presence or absence of IL-4. Histograms present data of a single representative experiment with different donors as mean±s.d.

For `CCCC1([C@H](O)C/C=C/[C@H]2[C@H](O)CC(=O)[C@@H]2CCCCCCC(=O)OC)CCC1` [Butaprost], in assay [1], the “induction of immunosuppressive factors arginase, IDO1, NOS2, IL-4Rα, IL10 and COX2 mRNA” value (“induction … IL10 and COX2 mRNA” below) is “induced high levels”.
Regarding `O=C1CC[C@H](/C=C/[C@@H](O)Cc2ccccc2)N1CCCCCCc1nn[nH]n1` [CAY10598], the “induction … IL10 and COX2 mRNA” value in assay [1] is reported as “induced high levels”.
For `CCCCC[C@H](O)/C=C/[C@H]1[C@H](O)CC(=O)[C@@H]1C/C=C\CCCC(=O)O` [PGE2, (5Z,11 alpha,13E,15S)-11,15-dihydroxy-9-oxoprosta-5,13-dien-1-oic acid], the “induction … IL10 and COX2 mRNA” value in assay [1] is listed as “Induction of immunosuppressive factors”. Also, the “induction of CD1a+CD14- DCs” value in assay [2] (added to GM-CSF and IL-4-supplemented cultures of differentiating monocytes) was “abolished the induction of CD1a^+CD14^− DCs”. Moreover, the CTL-suppressive function result in assay [2] (added to GM-CSF/IL-4-supplemented monocyte cultures) was “sufficient to induce the CTL-suppressive function”. In addition, the IL-10 production in assay [2] (after 6 days of culture) was found to be 261 pg/mL. Also, the “expression of additional immunosuppressive factors IDO1, NOS2, IL-10, IL4Rα” value in assay [3] is reported as “induced the expression”. For the same molecule, the “expression of endogenous COX2” value in assay [3] (analyzed after 6-10 h) was “start expressing endogenous COX2”. Besides, in the assay on suppressive cells, the yield of cells is reported as 48.6%. Also, in assay [4], the “induction of IL4Rα” value was “less pronounced, but also significant”; the “production of IL-10, ARG-1, NOS2 and IDO1” value is “dose-dependently induced”.
With TNF-α, the yield of cells with suppressive cells is 36.9%.
